According to paper PMC10396955, “2-Oxabicyclo[2.1.1]hexanes as saturated bioisosteres of the ortho-substituted phenyl ring” (Nature Chemistry, 2023):
Converted amounts (≈) assume the structure as drawn.

System: not listed separately
Assay: physchem
Assay type: physicochemical
Settings: Table S2; n-octanol/PBS pH 7.4; incubation 1
Method: Determination of Distribution Coefficient (LogD, pH 7.4) […]
n-octanol – phosphate buffered saline (PBS), pH 7.4. Distribution coefficient (or LogD) is a […]
Phosphate buffered saline, tablet (Sigma-Aldrich, USA; Cat # P4417)
Acetic acid (Enamine, Ukraine.)
DMSO stock solutions of the test compounds 10mM
Gradient HPLC system (Shimadzu, Japan)
MTR22 Multi Mix Rotator (UNICO, USA)
Laboratory Centrifuge, Sigma 4-15C, Qiagen (SIGMA GmbH, Germany) […]
allowed to mix in a rotator for 1 h at 30 rpm. Phase separation was assured by centrifugation for […]
dilution. The samples (both phases) were analyzed using a HPLC system coupled with a tandem mass spectrometer. Mebendazole was used as a reference compound. […]
where: SO – peak area of the analyte in octanol phase
S P – peak area of the analyte in PBS buffer do – dilution coefficient for octanol phase dp – dilution coefficient for aqueous phase

SMILES	D (partition ratio), incubation 1
O=C(Nc1ccccc1-c1ccc(Cl)cc1)c1cccnc1Cl [Boscalid, reference compound]	3.62E+03
Cn1cc(C(=O)Nc2ccccc2-c2cc(F)c(F)c(F)c2)c(C(F)F)n1 [Fluxapyroxad, reference compound]	3.37E+03

Same assay, conditions: Table S2; n-octanol/PBS pH 7.4; incubation 2

SMILES	D (partition ratio), incubation 2
O=C(Nc1ccccc1-c1ccc(Cl)cc1)c1cccnc1Cl [Boscalid, reference compound]	2.86E+03
Cn1cc(C(=O)Nc2ccccc2-c2cc(F)c(F)c(F)c2)c(C(F)F)n1 [Fluxapyroxad, reference compound]	2.99E+03

Same assay, conditions: Table S2; n-octanol/PBS pH 7.4; incubation 3

SMILES	D (partition ratio), incubation 3
O=C(Nc1ccccc1-c1ccc(Cl)cc1)c1cccnc1Cl [Boscalid, reference compound]	4.07E+03
Cn1cc(C(=O)Nc2ccccc2-c2cc(F)c(F)c(F)c2)c(C(F)F)n1 [Fluxapyroxad, reference compound]	3.24E+03

Same assay, conditions: pH 7.4, LogD, pH 7.4 (mean)

SMILES	logD at 1 h
O=C(Nc1ccccc1-c1ccc(Cl)cc1)c1cccnc1Cl [Boscalid, reference compound]	3.55
Cn1cc(C(=O)Nc2ccccc2-c2cc(F)c(F)c(F)c2)c(C(F)F)n1 [Fluxapyroxad, reference compound]	3.51

Same assay, conditions: pH 7.4, LogD, pH 7.4, incubation 1

SMILES	logD at 1 h
O=C(Nc1ccccc1-c1ccc(Cl)cc1)c1cccnc1Cl [Boscalid, reference compound]	3.56
Cn1cc(C(=O)Nc2ccccc2-c2cc(F)c(F)c(F)c2)c(C(F)F)n1 [Fluxapyroxad, reference compound]	3.53

Same assay, conditions: pH 7.4, LogD, pH 7.4, incubation 2

SMILES	logD at 1 h
O=C(Nc1ccccc1-c1ccc(Cl)cc1)c1cccnc1Cl [Boscalid, reference compound]	3.46
Cn1cc(C(=O)Nc2ccccc2-c2cc(F)c(F)c(F)c2)c(C(F)F)n1 [Fluxapyroxad, reference compound]	3.48

Same assay, conditions: pH 7.4, LogD, pH 7.4, incubation 3

SMILES	logD at 1 h
O=C(Nc1ccccc1-c1ccc(Cl)cc1)c1cccnc1Cl [Boscalid, reference compound]	3.61
Cn1cc(C(=O)Nc2ccccc2-c2cc(F)c(F)c(F)c2)c(C(F)F)n1 [Fluxapyroxad, reference compound]	3.51

Same assay, conditions: pH 7.4, logD (7.4)

SMILES	logD at 1 h
O=C(Nc1ccccc1-c1ccc(Cl)cc1)c1cccnc1Cl [Boscalid, reference compound]	3.6
Cn1cc(C(=O)Nc2ccccc2-c2cc(F)c(F)c(F)c2)c(C(F)F)n1 [Fluxapyroxad, reference compound]	3.5

System: not listed separately
Assay: Metabolic stability in human liver microsomes
Assay type: in vitro ADME
Settings: both sexes, human, microsomes, pH 7.4, % Remaining without cofactor, Mean of 2
Method: (§1) The data acquisition and system control was performed using Analyst 1.6.3 software from AB Sciex. Methods Microsomal incubations were carried out in 96-well plates in 5 aliquots of 30 μL each (one for each time point). […] In the control reactions the NADPH-cofactor system was substituted with phosphate buffer. […] Each reaction was performed in duplicates. Five time points over 40 minutes were analyzed. The reactions were stopped by adding 4 volumes of methanol containing internal standard to incubation aliquots, followed by protein sedimentation by centrifuging at 5500 rpm for 4 minutes. […]. Supernatants were analyzed using the HPLC system coupled with tandem mass spectrometer. […] In some cases, the last time point is excluded from the calculations to ensure acceptable logarithmic linearity of decay.

SMILES	remaining at 40 min, 2 µM
O=C(Nc1ccccc1-c1ccc(Cl)cc1)c1cccnc1Cl [Boscalid, reference compound]	59%
Cn1cc(C(=O)Nc2ccccc2-c2cc(F)c(F)c(F)c2)c(C(F)F)n1 [Fluxapyroxad, reference compound]	79%

Same assay, conditions: both sexes, human, microsomes, pH 7.4, % Remaining, Mean of 2

SMILES	remaining at 25 min, 2 µM	remaining at 40 min, 2 µM
O=C(Nc1ccccc1-c1ccc(Cl)cc1)c1cccnc1Cl [Boscalid, reference compound]	75%	66%
Cn1cc(C(=O)Nc2ccccc2-c2cc(F)c(F)c(F)c2)c(C(F)F)n1 [Fluxapyroxad, reference compound]	73%	63%

Same assay, conditions: both sexes, human, microsomes, pH 7.4, Clint

SMILES	microsomal CLint at 2 µM
O=C(Nc1ccccc1-c1ccc(Cl)cc1)c1cccnc1Cl [Boscalid, reference compound]	26 µL/min/mg
Cn1cc(C(=O)Nc2ccccc2-c2cc(F)c(F)c(F)c2)c(C(F)F)n1 [Fluxapyroxad, reference compound]	28 µL/min/mg

Same assay, conditions: both sexes, human, microsomes, pH 7.4, t1/2

SMILES	half-life at 2 µM
O=C(Nc1ccccc1-c1ccc(Cl)cc1)c1cccnc1Cl [Boscalid, reference compound]	1.06 h
Cn1cc(C(=O)Nc2ccccc2-c2cc(F)c(F)c(F)c2)c(C(F)F)n1 [Fluxapyroxad, reference compound]	0.983 h

Same assay, conditions: both sexes, human, pH 7.4

SMILES	k el at 2 µM
O=C(Nc1ccccc1-c1ccc(Cl)cc1)c1cccnc1Cl [Boscalid, reference compound]	0.000183 s⁻¹
Cn1cc(C(=O)Nc2ccccc2-c2cc(F)c(F)c(F)c2)c(C(F)F)n1 [Fluxapyroxad, reference compound]	0.0002 s⁻¹

System: human liver microsomes
Assay: Metabolic stability in human liver microsomes
Assay type: in vitro ADME
Settings: human, microsomes
Method: as §1

SMILES	CIint, intrinsic clearance
O=C(Nc1ccccc1-c1ccc(Cl)cc1)c1cccnc1Cl [Boscalid, reference compound]	26 µL/min/mg
Cn1cc(C(=O)Nc2ccccc2-c2cc(F)c(F)c(F)c2)c(C(F)F)n1 [Fluxapyroxad, reference compound]	28 µL/min/mg

System: Fusarium oxysporum
Assay: Antifungal susceptibility testing (MIC, CLSI M38-A2 microdilution)
Assay type: cell-based
Settings: Fig. 4e
Method: (§2) page 252: Antifungal susceptibility testing (determination of MIC values) The antifungal susceptibility tests were performed according to the Clinical and Laboratory Standards Institute (CLSI) […]-A2 protocol for mycelial fungi (1). Stock solutions were prepared by dissolving an appropriate amount of testing compounds in DMSO. Solutions of test compounds were added to the wells of a 96-well polystyrene microtiter plate (Colstar, USA) in the concentration range from 0.5 to 0.001 mg/mL. Mycelium growth was monitored photometrically at 490 nm by measuring the optical density of each well. Measurements were carried out two times: immediately after adding all components (RPMI 1640 broth, conidial suspension, test compound solutions) and after incubation plate at 26 °C for 48 h (2). MICs were the lowest testing compound concentrations that produced partial growth inhibition (50% of optical density relative to the control without testing compounds). The tests were performed in triplicate Results : Table S6. The MIC values of Fluxapyroxad , Boscalid , and their saturated analogues against Fusarium oxysporum , and Fusarium verticillioides Antifungal compaunds MIC, mg/mL Fusarium oxysporum Fusarium verticillioides Fluxapyroxad -* 0.250 Analogue (±)- 28 0.125 0.125 […] of 0.063 mg/mL. […]

SMILES	MIC
O=C(Nc1ccccc1-c1ccc(Cl)cc1)c1cccnc1Cl [Boscalid, reference compound]	250 µg/mL (≈ 728 µM)

Same assay, conditions: Table S6, lowest concentration giving 50% of optical density relative to control, 26 °C, 48 h

SMILES	MIC
O=C(Nc1ccccc1-c1ccc(Cl)cc1)c1cccnc1Cl [Boscalid, reference compound]	250 µg/mL (≈ 728 µM)

Same assay, conditions: at a concentration of 0.031 mg/mL, MIC not reached, read-out: Maximal inhibition of growth

SMILES	inhibition at 31 µg/mL
Cn1cc(C(=O)Nc2ccccc2-c2cc(F)c(F)c(F)c2)c(C(F)F)n1 [Fluxapyroxad, reference compound]	38 ± 1.9%

System: Fusarium verticillioides
Assay: as above
Assay type: cell-based
Settings: Fusarium verticillioides, 48 h, Table S6; lowest concentration giving 50% of optical density relative to control; 26 °C, 48 h; read-out: MIC
Method: as §2

SMILES	MIC
Cn1cc(C(=O)Nc2ccccc2-c2cc(F)c(F)c(F)c2)c(C(F)F)n1 [Fluxapyroxad, reference compound]	250 µg/mL (≈ 656 µM)

Same assay, conditions: Fusarium verticillioides, Fig. 4e; read-out: MIC

SMILES	MIC
Cn1cc(C(=O)Nc2ccccc2-c2cc(F)c(F)c(F)c2)c(C(F)F)n1 [Fluxapyroxad, reference compound]	250 µg/mL (≈ 656 µM)

Same assay, conditions: Fusarium verticillioides; at a concentration of 0.063 mg/mL; MIC not reached; read-out: Maximal inhibition of growth

SMILES	inhibition at 63 µg/mL
O=C(Nc1ccccc1-c1ccc(Cl)cc1)c1cccnc1Cl [Boscalid, reference compound]	39.2 ± 2.7%
